The term vapor or sublimation pressure denotes the pressure of vapour in equilibrium with the condensed phase. The term refractive index denotes the speed of light in vacuum divided by its phase velocity in the sample.

Numbers after ± are expanded uncertainties.

For data set [1] the following is noted: Liquid, Closed cell (Static) method.
A short description of data set [2]: refractive index (Na D-line) (dimensionless). The settings on record: 293.15 K; 101.33 kPa; Liquid; Standard Abbe refractometry.

`CO` [methanol]: the “vapor or sublimation pressure” value in data set [1] (383.3 K) is 480.7 ± 2.3 kPa; in data set [1] (398.1 K) it was 733.7 ± 3.1 kPa; in data set [1] (413.2 K), 1086 ± 4.1 kPa. For the same molecule, the refractive index in data set [2] is 1.3287 ± 0.0007.

As to `CCO` [ethanol], the “vapor or sublimation pressure” value in data set [1] (383.3 K) is 315.6 ± 1.7 kPa; in data set [1] (398.2 K), 498.3 ± 2.2 kPa; in data set [1] (413.2 K), 757 ± 3 kPa. The refractive index in data set [2] was determined as 1.3618 ± 0.0007.

For the molecule `CCC(C)=O` [butanone], the “vapor or sublimation pressure” value worked out at 245.6 ± 1.3 kPa in data set [1] (383.3 K), 358.5 ± 1.5 kPa in data set [1] (398.1 K), 358.5 ± 1.5 kPa in data set [1] (398.2 K) and 506.6 ± 1.9 kPa in data set [1] (413.2 K). Besides, the refractive index in data set [2] amounted to 1.3788 ± 0.0007.
